GI50 and TGI data for 41 molecules are collected here from PubChem BioAssay (NCI).

Several values for one entry are separate records, joined by “and”; a condition that tells them apart may be missing. Identical values can stand only once.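 Tested at 5 concentrations; 48 h exposure; 96-well plates; endpoints linearly interpolated, else capped at highest concentration. GI50 is the concentration that inhibits growth by half. At the TGI there is no net growth.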

For the test, the system named is MDA-MB-468 breast. Briefly: NCI-60 cell line screen, 48 h.
Take `CN(Cc1cccc(F)c1)c1ccc(CO)c(Cl)c1`: the GI50 was 45.5 nM and the TGI was 169 nM. The like results for `COc1cccc(/C=N/NC(=S)NC2CC3CCC2C3)c1O` (stereo not given) were, in that order, 11400 nM and greater than 100000 nM. Taken in the same sequence, the figures for `Brc1ccc2[nH]cc(-c3nc(-c4c[nH]c5ncccc45)cs3)c2c1` were 2660 nM and 10900 nM. Taken in the same sequence, the figures for `CCN(Cc1ccc(F)cc1)c1ccc(CO)c(C)c1` were 167 nM and 591 nM. For the molecule `Cc1cc2cc3ccc(N(C)C)cc3nc2cc1N`, the GI50 was 229 nM and the TGI turned out to be 1260 nM.

Regarding `Cc1ccc(/C=C2\CN(C(=O)C(Cl)Cl)C/C(=C\c3ccc(C)cc3)C2=O)cc1`, the GI50 was 195 nM and the TGI came to 427 nM. Consider `COc1ccccc1C1=C(Nc2ccccc2)C(=O)NC1=O`, for which the GI50 was greater than 10300 nM and the TGI was greater than 25000 nM. In the case of `COc1ccc2c(C3(c4cn(C)c5cc(OC)ccc45)C(=O)Nc4ccc(Cl)cc43)cn(C)c2c1`, the GI50 is 2540 nM and the TGI turned out to be 9080 nM.

For `CC1=C(/C=C/C(C)=C/C=C/C(C)=C/C=N/NC(=S)NC(=S)N/N=C/C=C(C)/C=C/C=C(C)/C=C/C2=C(C)CCCC2(C)C)C(C)(C)CCC1`, the GI50 was 3250 nM and 2840 nM; the TGI was 10500 nM and 10200 nM. On to `O=[N+]([O-])c1ccc(Oc2nc(Nc3ccc(O[C@H]4CO[C@H]5[C@@H]4OC[C@@H]5O)c(Cl)c3)ncc2F)c(Cl)c1`, for which the GI50 was 1470 nM and the TGI was determined as 4660 nM. Consider `COc1ccc(C(c2ccc(OCCN(C)C)cc2)c2cc3ccccc3c3ccccc23)cc1` (stereo not given), for which the GI50 was 1580 nM and the TGI was determined as 3150 nM. In the case of `NC(=S)n1c(=O)n(-c2cccc(C(F)(F)F)c2)c(=O)c2cc(-c3ccc(F)cc3F)ccc21`, the GI50 is 2010 nM and the TGI stood at 5800 nM. For `COc1cc(NS(C)(=O)=O)ccc1Nc1c2ccccc2nc2ccccc12`, the GI50 is 469 nM [middle of 4 runs].

As for `O=C(CN1CCN(c2cc3c(cc2F)c(=O)c(C(=O)O)cn3C2CC2)CC1)Nc1nc(-c2ccc(Cl)cc2)cs1`, the GI50 is 3430 nM and the TGI stood at 30700 nM. Taken in the same sequence, the figures for `COc1cccc(-c2nn(-c3ccccc3)cc2-c2ccnc(NCCNC(=O)Nc3cccc(C(F)(F)F)c3)c2)c1` were 1700 nM and 3430 nM. For the molecule `O=C1c2c(c3c4cc(O)ccc4oc3c3[nH]c4ccccc4c23)C(=O)N1O`, the GI50 was 478 nM and the TGI stood at 1550 nM. The like results for `C=C(C)C(=O)O[C@H]1C[C@@]2(C)OC(=CC2=O)/C(CO)=C\[C@H]2OC(=O)C(=C)[C@H]12` were, in that order, 41.6 nM and 127 nM. Taken in the same sequence, the figures for `CCOc1cc(Br)c(C(C)NC(=O)c2cccc(OC)c2)cc1OCC` (stereo not given) were 3460 nM and 54700 nM. As to `Cn1ccnc1C(=O)/C=C/c1ccc(CNC(=O)c2ccc(Cl)cc2)cc1`, the GI50 is 2050 nM and the TGI worked out at 4750 nM. In the case of `CCN1C(=O)N(CC)C2SC(N/N=C/c3ccccc3)=NC21` (stereo not given), the GI50 is 293 nM. For the molecule `CC(=O)N1N=C(c2ccc(Nc3ccnc4cc(Cl)ccc34)cc2)CC1c1ccc(Cl)cc1` (stereo not given), the GI50 is 2410 nM and the TGI was greater than 100000 nM. The like results for `FC(F)(F)c1ccc(-c2cnc(-n3cc(COCCN4CCCCC4)nn3)nc2NC2CCCCCC2)cc1` were, in that order, 3540 nM and 7370 nM. Taken in the same sequence, the figures for `CCC(c1ccc(OC)cc1)C(CC)c1ccc(O)c(CN2CCN(C)CC2)c1` (stereo not given) were 2500 nM and 9770 nM.

With `COC1=C(C)C(=O)c2c(c(CCCl)c3n2CCC3O)C1=O` (stereo not given), the GI50 was 11100 nM and the TGI was 34500 nM.

As for `CC1=CC(=O)C(C(C)C)=CC1=Nc1cc(Br)c(O)c(Br)c1`, the GI50 was 3700 nM and the TGI turned out to be 15500 nM.

For `Oc1ccc(-c2nc3ccc4[nH]ncc4c3c3c2CCCC3)c(F)c1`, the GI50 is 4060 nM and the TGI is 20300 nM. The like results for `N#Cc1c(Br)n(C2OC(CO)C(O)C2O)c2ncnc(N)c12` (stereo not given) were, in that order, 2010 nM and 6120 nM. Regarding `CC1=C(CN(O)C(N)=O)C2=C(C)C3(CC3)[C@](C)(O)C(=O)C2=C1`, the GI50 was 184 nM and the TGI turned out to be 497 nM. The like results for `Cc1ccc(C(NC(=O)c2ccccc2)c2ccc3cccnc3c2O)cc1` (stereo not given) were, in that order, 219 nM and 788 nM.

Consider `COc1ccc(/C=c2\sc3n(c2=O)C2C(NN=3)N(C)C(=O)N2C)cc1` (stereo not given), for which the GI50 is 231 nM and the TGI was found to be 783 nM.

Regarding `O=C(O)c1cn(C2CC2)c2cc(N3CCN(C(=O)Nc4nc(-c5ccccc5)cs4)CC3)c(F)cc2c1=O`, the GI50 is 563 nM and the TGI is 6520 nM. Regarding `CCN1C(=O)CCCc2c1ccc(Nc1ncc(Cl)c(NC3[C@@H](C(N)=O)[C@@H]4C=C[C@H]3C4)n1)c2OC` (stereo not given in full), the GI50 is 1130 nM and the TGI was 4800 nM. Taken in the same sequence, the figures for `Cc1cc(Nc2nc(-c3cccnc3)nc3ccccc23)n[nH]1` were 1780 nM and 21400 nM. The like results for `COc1ccc(-c2ccc(-c3ccc(C(=N)N)nc3)s2)cc1Cl` were, in that order, 1740 nM and 3320 nM. As to `CC(C)N1CCN(Cc2ccc3c(NNC(=O)c4ccccc4)nc4cc(F)ccc4n23)CC1`, the GI50 was 260 nM and the TGI came out at 1400 nM. The like results for `C=C1C(=O)O[C@H]2[C@H]1CC/C(COC(=O)CCSCCC(=O)OC/C1=C/CC[C@@]3(C)O[C@H]3[C@H]3OC(=O)C(=C)[C@@H]3CC1)=C\CC[C@@]1(C)O[C@@H]21` were, in that order, 358 nM and 1500 nM. Regarding `COc1cc2c(cc1OC)C(Sc1ccc(SC)cc1)c1c(nc(N)c(C#N)c1N)O2` (stereo not given), the GI50 is 1030 nM and the TGI amounted to 2620 nM. The like results for `Nc1nc(N)c(C=Nc2ccc(Br)cc2)c(Nc2ccc(Br)cc2)n1` were, in that order, 11000 nM and 23300 nM. The like results for `Cn1nc(-c2ccc(Cl)cc2)nc2c(=O)n(C)c(=O)nc1-2` were, in that order, 1180 nM and 3350 nM. The like results for `CCCCCCNC(=O)Oc1ccc(/C(=C(/C)Cc2ccc(OC)cc2)c2ccc(OCCCN(C)C)cc2)cc1` were, in that order, 16700 nM and 32600 nM. As to `COc1cccc(-c2ccc3c(c2)C2CCN(Cc4ccccc4)C3C2)c1` (stereo not given), the GI50 was 2890 nM and the TGI was 16100 nM.
